Measurements as given in the NIST ThermoML archive (doi:10.1016/j.tca.2016.08.006).
“And” between values parts separate entries of the source, which are not always exact repeats. Identical values can stand only once.

What was measured:
[1] = 101.33 kPa, Crystal, Vacuum adiabatic calorimetry
[2] = molar heat capacity at constant pressure; conditions: 101.33 kPa, Crystal, Vacuum adiabatic calorimetry

[S-2].[Zn+2] [zinc sulfide]
Conditions	molar entropy, [1] [J/K/mol]	molar heat capacity at constant pressure, [2]
1 K	3.1e-05	0.000119 J/K/mol
2 K	0.00031	0.000958 J/K/mol
4 K	0.002561	0.007765 J/K/mol
6 K	0.00879	0.02685 J/K/mol
8 K	0.0213	0.06618 J/K/mol
10 K	0.043	0.1376 J/K/mol
12 K	0.078	0.2601 J/K/mol
13.23 K	–	0.1984 J/K/mol
14 K	0.1317	0.4569 J/K/mol
16 K	0.2106	0.7475 J/K/mol
16.01 K	–	0.5445 J/K/mol
17.97 K	–	1.025 J/K/mol
18 K	0.3203	1.14 J/K/mol
19.61 K	–	1.553 J/K/mol
20 K	0.4649	1.628 J/K/mol
21.54 K	–	2.093 J/K/mol
23.46 K	–	2.68 J/K/mol
25 K	0.987	3.17 J/K/mol
25.99 K	–	3.508 J/K/mol
28.89 K	–	4.52 J/K/mol
30 K	1.72	4.941 J/K/mol
31.66 K	–	5.487 J/K/mol
34.78 K	–	6.6 J/K/mol
35 K	2.617	6.734 J/K/mol
37.93 K	–	7.702 J/K/mol
40 K	3.629	8.454 J/K/mol
41.05 K	–	8.761 J/K/mol
44.22 K	–	9.788 J/K/mol
45 K	4.72	10.08 J/K/mol
47.06 K	–	10.71 J/K/mol
50 K	5.863	11.63 J/K/mol
51.43 K	–	12.16 J/K/mol
53.49 K	–	12.83 J/K/mol
55 K	7.041	13.11 J/K/mol
55.51 K	–	13.31 J/K/mol
57.5 K	–	14 J/K/mol
59.41 K	–	14.51 J/K/mol
60 K	8.244	14.56 J/K/mol
61.72 K	–	15.17 J/K/mol
64.45 K	–	15.93 J/K/mol
65 K	9.466	15.99 J/K/mol
67.18 K	–	16.76 J/K/mol
69.7 K	–	17.39 J/K/mol
70 K	10.7	17.39 J/K/mol
72.52 K	–	18.2 J/K/mol
75 K	11.95	18.77 J/K/mol
75.26 K	–	18.97 J/K/mol
77.99 K	–	19.74 J/K/mol
80 K	13.2	20.13 J/K/mol
80.73 K	–	20.47 J/K/mol
83.59 K	–	21.24 J/K/mol
85 K	14.47	21.46 J/K/mol
86.48 K	–	22.17 J/K/mol
90 K	15.73	22.77 J/K/mol
91.62 K	–	23.27 J/K/mol
95 K	16.99	24.03 J/K/mol
95.13 K	–	24.19 J/K/mol
98.85 K	–	25.12 J/K/mol
100 K	18.26	25.25 J/K/mol
102.42 K	–	26.14 J/K/mol
106.06 K	–	26.79 J/K/mol
109.93 K	–	27.68 J/K/mol
110 K	20.77	27.55 J/K/mol
113.87 K	–	28.52 J/K/mol
117.79 K	–	29.35 J/K/mol
120 K	23.26	29.66 J/K/mol
121.86 K	–	30.17 J/K/mol
125.61 K	–	30.87 J/K/mol
129.43 K	–	31.59 J/K/mol
130 K	25.71	31.58 J/K/mol
133.29 K	–	32.28 J/K/mol
137.15 K	–	32.9 J/K/mol
140 K	28.12	33.3 J/K/mol
141.04 K	–	33.52 J/K/mol
144.93 K	–	34.17 J/K/mol
149.88 K	–	35.06 J/K/mol
150 K	30.47	34.85 J/K/mol
155.67 K	–	35.74 J/K/mol
159.17 K	–	36.12 J/K/mol
160 K	32.76	36.24 J/K/mol
164 K	–	36.77 J/K/mol
168.93 K	–	37.35 J/K/mol
170 K	35	37.49 J/K/mol
173.91 K	–	37.96 J/K/mol
178.77 K	–	38.48 J/K/mol
180 K	37.17	38.6 J/K/mol
184.05 K	–	38.9 J/K/mol
189.4 K	–	39.43 J/K/mol
190 K	39.29	39.6 J/K/mol
194.4 K	–	39.95 J/K/mol
199.39 K	–	40.39 J/K/mol
200 K	41.34	40.5 J/K/mol
204.53 K	–	40.77 J/K/mol
209.77 K	–	41.2 J/K/mol
210 K	43.34	41.32 J/K/mol
214.65 K	–	41.55 J/K/mol
219.66 K	–	41.93 J/K/mol
220 K	45.28	42.05 J/K/mol
224.69 K	–	42.27 J/K/mol
230 K	47.16	42.62 J/K/mol and 42.72 J/K/mol
235.27 K	–	42.91 J/K/mol
240 K	48.99	43.32 J/K/mol
240.27 K	–	43.24 J/K/mol
245.33 K	–	43.69 J/K/mol
250 K	50.77	43.88 J/K/mol
250.45 K	–	43.78 J/K/mol
258.21 K	–	44.25 J/K/mol
260 K	52.5	44.38 J/K/mol
263.65 K	–	44.4 J/K/mol
269.02 K	–	44.71 J/K/mol
270 K	54.19	44.84 J/K/mol
274.56 K	–	44.99 J/K/mol
280 K	55.83	45.27 J/K/mol
280.13 K	–	45.24 J/K/mol
285.72 K	–	45.48 J/K/mol
290 K	57.42	45.66 J/K/mol
291.19 K	–	45.73 J/K/mol
297.09 K	–	45.7 J/K/mol
300 K	58.98	46.03 J/K/mol
304.72 K	–	46.14 J/K/mol
310 K	60.49	46.36 J/K/mol
312.85 K	–	46.5 J/K/mol
320 K	61.97	46.68 J/K/mol
